According to patent publication US20250099485A1, “COMPOSITIONS FOR PROMOTING HAIR GROWTH” (ESTETRA SRL, priority 2021, published 2025):

Assays:
[1] = system: mouse lymphoma cell line L5178Y TK^+/−; assay: Generation of reactive oxygen species (ROS); assay type: cell-based; details: up to 100 μM, 3 h exposure, vs vehicle control
Experimental: The objective of the study was to investigate the generation of reactive oxygen species (ROS) induced by the test item, estetrol (E4), in a mouse lymphoma cell line L5178Y TK^+/−.
L5178Y TK^+/− cells in logarithmic phase of growth were plated in black 96 well cell culture plates at 1×10^4 cells in 90 μL of cell culture media. Controls and test item in triplicate were applied to the cells as a 10× concentrate in 10 μL of a 10% ethanol solution in PBS (final concentration of ethanol on plate was 1%). Cells were incubated for 3 hours at 37° C., 5% CO2, and the generation of ROS was evaluated by fluorescence with a ROS reagent: the ROS reagent was freshly prepared by dissolving one ampoule of reagent (50 μg) in 70 μL DMSO and further diluting this with 2.1 mL of pre-warmed PBS. 10 μL of ROS reagent was added to each well and the plate were shaken for 30 seconds in the dark. The plates were incubated approximately at 37° C., 5% CO2 for 1 h 30 min and fluorescence was read on a plate scanner with excitation at 492 nm and emission at 520 nm.

[2] = Tissue distribution of radioactivity by quantitative whole body autoradiography, non-pigmented rats; assay type: in vivo, rat (female Sprague-Dawley); details: female non-pigmented rats; for Concentration of radioactivity in tissue, Skin: Non-pigmented / Tissue: Blood ratio, Skin: Non-pigmented: single oral 15 mg/kg
Experimental: Times for analysis were: 0.5, 1, 2, 5, 8, 24 and 48 hours.
Distribution of radioactivity in tissues was determined and quantified using the Fuji FLA-5100 fluorescent image analyser and associated Tina and SeeScan software. Tissue concentrations of radioactivity were determined using calibrated autoradiographic microscales produced by GE Healthcare. A standard curve was produced using the microscales from which tissue concentrations of radioactivity were determined (nCi/g). These values were then converted into pg equivalents/g using the specific activity of the dose formulation.
Radioactivity concentrations are also reported as μg equivalents/g.

[3] = Tissue distribution of radioactivity by quantitative whole body autoradiography, partially pigmented rats; details: female partially pigmented rats; for Concentration of radioactivity in tissue, Skin: Non-pigmented / Concentration of radioactivity in tissue, Skin: Pigmented / Tissue: Blood ratio, Skin: Non-pigmented / Tissue: Blood ratio, Skin: Pigmented / Total amount of radioactivity in tissue, Skin (non-pigmented) / Total amount of radioactivity in tissue, Skin (pigmented): single oral 15 mg/kg
Experimental: Tissue distribution was determined in female rats (partially pigmented and non-pigmented) using [^14C]-estetrol.
A group of six female Lister Hooded rats each received a single oral dose of [^14C]-estetrol. At each selected time (see below) one animal was killed (by overdose of CO2) followed by immediate snap freezing in hexane/solid CO2. The carcasses were retained for examination of the tissue distribution of radioactivity using the technique of quantitative whole body autoradiography (QWBA).
Times for analysis were: (0.5, 8, and 24 hours, 7, 14 and 35 days).
Frozen carcasses were subjected to whole-body autoradiography.
Where concentrations are reported, radioactivity was assumed to be associated with [^14C]-estetrol or any metabolic products derived from [^14C]-estetrol. The specific activities of the dosed test compounds were used for the calculation of concentrations in all cases. Recoveries of radioactivity are reported as percentage of administered radioactivity (% dose). Radioactivity concentrations are also reported as μg equivalents/g.

[4] = system: Normal Human Dermal Fibroblasts (NHDFs); assay: Colonization of acellular area (IBIDI gap closure), fibroblasts; assay type: cell-based; details: 10 ng/ml, both in presence and absence of MMC
Experimental: The study consists in an in vitro assay aiming to evaluate the properties of E4 and E2 at 4 concentrations each on keratinocytes and fibroblasts. In this assay, the measurement of the colonization of a standard acellular surface generated from a confluent monolayer of cells using a dedicated culture device (IBIDI chamber) is performed. The assay is performed in absence and in presence of a proliferation inhibitor to focus on cell proliferation and migration or on migration only, respectively.
Normal Human foreskin-derived Dermal Fibroblast (NHDFs, ATCC) cells were grown in phenol-free Dulbecco's Modified Eagle Medium (DMEM, ThermoFisher Scientific) supplemented with 10% of Foetal Bovine Serum (FBS, ThermoFisher Scientific), L-glutamine and antibiotics. The cells were maintained in a humidified incubator at 37° C. with a 5% CO2 atmosphere.
Cells were plated in 2-well silicone inserts with a defined cell free gap (IBIDI chambers; IBIDI GmbH, 80209) that was previously inserted on 12-well culture plates. This culture device allows to create a standardized 500 μm±100 μm cell free gap for monitoring cell colonization. 24 h after seeding, when the culture reached high confluency, cells in the insert were treated, or not, with mitomycin C (MMC) at 10 μg/ml during 2 h. After these 2 hours, the insert was removed, and cells were treated with E2 or E4 in presence or not of MMC for additional 2 h. Then, if appropriate, the culture medium was removed and cells were treated with E2 or E4 for 22 h, in absence of MMC.
For the assay, keratinocytes were plated in Epilife medium without HKGS and all the treatments were performed in this medium. Fibroblasts were plated in DMEM medium containing only 2.5% of FBS and the treatments were performed in absence of FBS.
E2 and E4 were applied at 4 concentrations each (10^−7M, 10^−8M, 10^−9M, 10^−10M). In parallel, cells were treated with a positive control (HKGS 1% for human keratinocytes and PDGF-BB at 10 ng/ml for human fibroblasts).
To monitor cell colonization and to evaluate the gap closure rate, pictures of the gap were taken after different times: at time 0 h, corresponding to the beginning of the treatment with E2 or E4 and to the removal of the culture insert, at time 6 h and at time 24 h (corresponding to the end of the treatments with E2 or E4). Pictures were taken with a microscope Zeiss (Axiover 25-10× objective) and with a camera Invenio2EIII (DeltaPix—Lux-Optic). The colonized areas were quantified from the pictures by the use of the WimAsis platform—WimScratch software. For each insert, 3 pictures were taken at each time. As each condition was performed in triplicates, it means a total of 9 pictures per condition and per time point of acquisition

OO [hydrogen peroxide, reference compound]
levels of ROS, positive control [1]: tendency to increase the levels of ROS

[^14C]-estetrol
Concentration of radioactivity in tissue, Skin: Non-pigmented ([2]; 0.5 hours): 2.59 microgram equivalents/gram
Tissue: Blood ratio, Skin: Non-pigmented ([2]; 0.5 hours): 1.05
Concentration of radioactivity in tissue, Skin: Non-pigmented ([2]; 1 hour): 0.771 microgram equivalents/gram
Tissue: Blood ratio, Skin: Non-pigmented ([2]; 1 hour): 0.99
Concentration of radioactivity in tissue, Skin: Non-pigmented ([2]; 2 hours): 0.465 microgram equivalents/gram
Tissue: Blood ratio, Skin: Non-pigmented ([2]; 2 hours): 1.72
Concentration of radioactivity in tissue, Skin: Non-pigmented ([2]; 5 hours): 0.189 microgram equivalents/gram
Tissue: Blood ratio, Skin: Non-pigmented ([2]; 5 hours): 1.66
Concentration of radioactivity in tissue, Skin: Non-pigmented ([2]; 8 hours): 0.361 microgram equivalents/gram
Tissue: Blood ratio, Skin: Non-pigmented ([2]; 8 hours): 1.77
Concentration of radioactivity in tissue, Skin: Non-pigmented ([2]; 24 hours): BLQ
Concentration of radioactivity in tissue, Skin: Non-pigmented ([2]; 48 hours): BLQ
Concentration of radioactivity in the liver (greatest concentration) ([2]; single oral dose, 0.5 hours): 12.5 μg equivalents/g
Concentration of radioactivity in tissue, Skin: Non-pigmented ([3]; 0.5 hours): 1.89 microgram equivalents/gram
Concentration of radioactivity in tissue, Skin: Pigmented ([3]; 0.5 hours): 2.85 microgram equivalents/gram
Tissue: Blood ratio, Skin: Non-pigmented ([3]; 0.5 hours): 0.71
Tissue: Blood ratio, Skin: Pigmented ([3]; 0.5 hours): 1.07
Total amount of radioactivity in tissue, Skin (non-pigmented) ([3]; 0.5 hours): 1.136 % dose administered/tissue
Total amount of radioactivity in tissue, Skin (pigmented) ([3]; 0.5 hours): 1.714 % dose administered/tissue
Concentration of radioactivity in tissue, Skin: Non-pigmented ([3]; 8 hours): 0.090 microgram equivalents/gram
Concentration of radioactivity in tissue, Skin: Pigmented ([3]; 8 hours): 0.163 microgram equivalents/gram
Tissue: Blood ratio, Skin: Non-pigmented ([3]; 8 hours): 0.66
Tissue: Blood ratio, Skin: Pigmented ([3]; 8 hours): 1.03
Total amount of radioactivity in tissue, Skin (non-pigmented) ([3]; 8 hours): 0.059 % dose administered/tissue
Total amount of radioactivity in tissue, Skin (pigmented) ([3]; 8 hours): 0.099 % dose administered/tissue
Concentration of radioactivity in tissue, Skin: Non-pigmented ([3]; 24 hours): BLQ
Concentration of radioactivity in tissue, Skin: Pigmented ([3]; 24 hours): 0.113 microgram equivalents/gram
Total amount of radioactivity in tissue, Skin (non-pigmented) ([3]; 24 hours): <0.041 % dose administered/tissue
Total amount of radioactivity in tissue, Skin (pigmented) ([3]; 24 hours): 0.061 % dose administered/tissue
Concentration of radioactivity in tissue, Skin: Non-pigmented ([3]; 7 days): BLQ
Concentration of radioactivity in tissue, Skin: Pigmented ([3]; 7 days): BLQ
Total amount of radioactivity in tissue, Skin (non-pigmented) ([3]; 7 days): <0.043 % dose administered/tissue
Total amount of radioactivity in tissue, Skin (pigmented) ([3]; 7 days): <0.043 % dose administered/tissue
Concentration of radioactivity in tissue, Skin: Non-pigmented ([3]; 14 days): BLQ
Concentration of radioactivity in tissue, Skin: Pigmented ([3]; 14 days): BLQ
Total amount of radioactivity in tissue, Skin (non-pigmented) ([3]; 14 days): <0.038 % dose administered/tissue
Total amount of radioactivity in tissue, Skin (pigmented) ([3]; 14 days): <0.038 % dose administered/tissue
Concentration of radioactivity in tissue, Skin: Non-pigmented ([3]; 35 days): BLQ
Concentration of radioactivity in tissue, Skin: Pigmented ([3]; 35 days): BLQ
Total amount of radioactivity in tissue, Skin (non-pigmented) ([3]; 35 days): <0.041 % dose administered/tissue
Total amount of radioactivity in tissue, Skin (pigmented) ([3]; 35 days): <0.041 % dose administered/tissue
Concentration of radioactivity in the liver (greatest concentration) ([3]; single oral dose, 0.5 hours): 13.7 μg equivalents/g
Concentration of radioactivity in the liver ([3]; single oral dose, 7 days after dosing): 0.410 μg equivalents/g
Concentration of radioactivity, majority of tissues (BLQ) ([3]; single oral dose, by 24 hours): < 0.076 μg equivalents/g

B1: PDGF-BB: positive control at 10 ng/ml for human fibroblasts (protein, UniProt P01127 82-190, looked up)
Platelet-derived growth …: SLGSLTIAEPAMIAECKTRTEVFEISRRLIDRTNANFLVWPPCVEVQRCSGCCNNRNVQCRPTQVQLRPVQVRKIEIVRKKPIFKKATVTLEDHLACKCETVAAARPVT
NHDF colonized area, positive reference [4]: significantly increases the colonized area
